Results published in patent US7342034B2, “Fused heterocyclic compounds and analogs thereof, modulators of nuclear hormone receptor function” (Bristol-Myers Squibb Company, priority 2001, dated 2008).
Where two headings read alike, the source gives them in different places.

Legend:
AR [1] = molecular target: T1, AR (Rattus norvegicus, UniProt P15207)
T1 sequence (P15207 1-902): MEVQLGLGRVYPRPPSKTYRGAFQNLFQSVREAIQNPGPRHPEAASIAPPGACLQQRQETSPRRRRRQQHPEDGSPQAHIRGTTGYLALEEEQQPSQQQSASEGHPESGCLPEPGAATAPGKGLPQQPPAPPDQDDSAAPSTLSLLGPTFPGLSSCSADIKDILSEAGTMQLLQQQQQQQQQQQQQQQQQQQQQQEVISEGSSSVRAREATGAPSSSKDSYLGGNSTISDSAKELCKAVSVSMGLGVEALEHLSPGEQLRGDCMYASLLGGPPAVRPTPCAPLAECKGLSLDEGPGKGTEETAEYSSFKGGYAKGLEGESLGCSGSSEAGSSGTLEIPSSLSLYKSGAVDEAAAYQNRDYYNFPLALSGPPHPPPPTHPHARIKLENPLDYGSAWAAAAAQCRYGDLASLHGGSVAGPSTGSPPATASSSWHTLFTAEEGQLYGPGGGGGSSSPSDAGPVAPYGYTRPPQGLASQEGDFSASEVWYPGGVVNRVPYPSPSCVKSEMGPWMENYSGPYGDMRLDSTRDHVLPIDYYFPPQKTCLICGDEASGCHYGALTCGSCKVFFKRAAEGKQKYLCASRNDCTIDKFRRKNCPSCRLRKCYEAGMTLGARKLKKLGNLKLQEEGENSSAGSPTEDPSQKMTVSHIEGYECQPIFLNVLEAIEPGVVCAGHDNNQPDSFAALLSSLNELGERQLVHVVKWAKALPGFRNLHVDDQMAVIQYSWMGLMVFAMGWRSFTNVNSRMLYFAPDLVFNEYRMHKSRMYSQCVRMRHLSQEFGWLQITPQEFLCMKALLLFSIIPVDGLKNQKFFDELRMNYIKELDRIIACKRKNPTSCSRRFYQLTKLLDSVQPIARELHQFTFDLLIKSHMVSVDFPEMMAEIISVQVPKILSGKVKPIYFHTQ

AR [2] = molecular target: T1, AR; details: castrated rats
From the text: The activity of compounds of the present invention as AR agonists was investigated in an immature male rat model, a recognized test of anabolic effects in muscle and sustaining effects in sex organs for a given compound, as described in L. G. Hershberger et al., Proc. Soc. […] Yak. Ken. Nem.
The basis of this assay lies in the well-defined action of androgenic agents on the maintenance and growth of muscle tissues and sexual accessory organs in animals and man. […] J. Anat. […] Ital. Biol. Sper. […] II. […] Ital. Biol. Sper. […] As described above, the effects of androgens on maintenance of male sexual accessory organs, such as the prostate and seminal vesicles, is well described. Castration results in rapid involution and atrophy of the prostate and seminal vesicles. This effect can be reversed by exogenous addition of androgens. Since both the levator ani muscle and the male sex organs are the tissues most responsive to the effects of androgenic agents, this model is used to determine the androgen dependent reversal of atrophy in the levator ani muscle and the sex accessory organs in immature castrated rats. Sexually mature rats (200-250 g, 6-8 weeks-old, Sprague-Dawley, Harlan) were acquired castrated from the vendor (Taconic). The rats were divided into groups and treated daily for 7 to 14 days with one of the following: • 1. Control vehicle • 2. […]

wild type AR = details: read-out: Kd for [^3H]-DHT; MDA 453 cells, saturation analysis, Scatchard
Method: For the saturation analysis, the difference between the total binding and the non-specific binding, was defined as specific binding.
Two replicates were used for each sample. After 4 hours at 37° C., cells were washed, harvested and counted as described above. […] The KI, values were determined by application of the Cheng-Prusoff equation to the IC50 values, where:
[formula] After correcting for non-specific binding, IC50 values were determined. […]

| Compound | ED80 (AR [1]; immature castrated rat model) [mg] | EC50 (increase in organ weight) (AR [1]; immature castrated rats, 3 days dosing) [mg] | higher potency than free T (AR [1]; organ weight increase, immature castrated rats) | EC50 (increase in organ weight) (AR [2]; 3 days dosing) [mg] | higher potency than free T (AR [2]; organ weight increase) | Kd (wild type AR) [nM] |
| --- | --- | --- | --- | --- | --- | --- |
| CCC(=O)O[C@H]1CC[C@H]2[C@@H]3CCC4=CC(=O)CC[C@]4(C)[C@H]3CC[C@]12C [TP, testosterone propionate] | 0.1 | ~0.03 | 10-30 fold | ~0.03 | 10-30 fold | – |
| tritiated dihydrotestosterone [[^3H]-DHT] | – | – | – | – | – | 0.7 |
